Data: patent US7507749B2, “Antitumor agents” (priority 2001, dated 2009)
Read-outs that look alike come from different tables or passages of the source.

Legend:
[1] = system: mammary adenocarcinoma-17/Adr; experiment: Test E: R-enantiomer of compound 22b and compound 22a against early stage mammary adenocarcinoma-17/Adr; type: in vivo
Procedure: Then, P.B.S. was added and the pH adjusted to 7 with HCl. A volume of 0.2 ml per injection was administered to animals intravenously. […] Then, P.B.S. was added and the pH was adjusted to 7 with HCl. A volume of 0.2 ml per injection was administered to animals intravenously.

colon carcinoma 26 = system: colon carcinoma 26
Procedure: In this trial the R-enantiomers of XK-469, compound 22c, and compound 22b were compared against advanced staged colon carcinoma 26 in female Balb/c mice. […] Cage #2 was 22b at 400 mg/kg and Cage #4 was 22c at 400 mg/kg.
The XK469-R, 22b, and 22c compound doses were all prepared the same, using 3% ethanol, 1% POE-80, and 0.5% sodium bicarbonate. The injection volume was 0.2 mu/mouse IV. […] The mice were Balb/c female mice: DOB Feb. 12, 2001; DOA Mar. 27, 2001; DOT Sep. 8, 2001, with an average body weight of 24.7 grams at the start of Rx administration. The tumor was Colon Carcinoma-26 passage 141; date of implant Sep. 8, 2001, and implanted at 30 to 60 mg fragments bilaterally SC. All tumors were 63 to 171 mg on day 6, the day of first Rx.

[2] = Cage 3, IV 36 mg/kg day 1, 48 mg/kg/inj qd 2-7, total 324 mg/kg
[3] = Cage 4, IV 7 inj, total 162 mg/kg
[4] = Cage 5, IV 7 inj, total 81 mg/kg
[5] = Cg 8, IV 110 mg/kg/inj days 6,10, total 220 mg/kg
[6] = Cg 6, IV 80 mg/kg/inj days 6,8,10,14,16, total 400 mg/kg
[7] = Cg 7, IV 50 mg/kg/inj days 6,8,10,13,15, total 250 mg/kg

CC(Oc1ccc(Oc2ccc3ccc(F)cc3n2)cc1)C(=O)O (racemic) [Compound 22a, 2-[4-(7-fluoroquinolin-2-yloxy)phenoxy]propanoic acid]
% Body Wt Loss at Nadir [1, 2]: −1.6%
% T/C mass [1, 2]: 14%
Activity Rating [1, 2]: ++ (1.3-1.9)
Day of Nadir [1, 2]: 5 days
Drug Deaths [1, 2]: 0/5
Growth Delay [1, 2]: 5 days
Log Kill [1, 2]: 1.5
Median Tumor Mass on day 9 (Range) [1, 2]: 138 (63-207) mg
Tumor Free day-23 [1, 2]: 0/5
Neuromuscular toxicity ([1]; Cage 3, IV 48 mg/kg/inj, limits higher individual dosages): severe neuromuscular toxicity
Duration of leg dysfunction (front legs) ([1]; Cage 3, IV 48 mg/kg/inj, longer for the rear legs): 15 min
% Body Wt Loss at Nadir [1, 3]: −1.5%
% T/C mass [1, 3]: >100%
Activity Rating [1, 3]: inactive
Day of Nadir [1, 3]: 5 days
Drug Deaths [1, 3]: 0/5
Growth Delay [1, 3]: 1 days
Log Kill [1, 3]: 0.3
Median Tumor Mass on day 9 (Range) [1, 3]: 975 (252-1836) mg
Tumor Free day-23 [1, 3]: 0/5
% Body Wt Loss at Nadir [1, 4]: −3.0%
% T/C mass [1, 4]: 77%
Activity Rating [1, 4]: inactive
Day of Nadir [1, 4]: 5 days
Drug Deaths [1, 4]: 0/5
Growth Delay [1, 4]: 1 days
Log Kill [1, 4]: 0.3
Median Tumor Mass on day 9 (Range) [1, 4]: 743 (725-1413) mg
Tumor Free day-23 [1, 4]: 0/5

O=P1(N(CCCl)CCCl)NCCCO1 (centres unmarked) [Cytoxan]
% Body Wt change at nadir (colon carcinoma 26; [5]): −9.4%
Activity Rating (colon carcinoma 26; [5]): no meaningful activity
CR's (colon carcinoma 26; [5]): 0/5
Drug Deaths (colon carcinoma 26; [5]): 0/5
Growth Delay (colon carcinoma 26; [5]): 1 days
Log Kill (colon carcinoma 26; [5]): 0.2
Median time for tumors to 700 mg (range) (colon carcinoma 26; [5]): 14 (12-15) days
PR's (colon carcinoma 26; [5]): 0/5
Tumor Free day-156 (colon carcinoma 26; [5]): 0/5
day of nadir (colon carcinoma 26; [5]): 12 days

CC(Oc1ccc(Oc2cnc3ccc(Cl)cc3n2)cc1)C(=O)[O-].[Na+] (centres unmarked) [XK469-R]
% Body Wt change at nadir (colon carcinoma 26; [6]): −8.1%
Activity Rating (colon carcinoma 26; [6]): + (0.7-1.2)
CR's (colon carcinoma 26; [6]): 0/6
Drug Deaths (colon carcinoma 26; [6]): 0/6
Growth Delay (colon carcinoma 26; [6]): 5 days
Log Kill (colon carcinoma 26; [6]): 0.9
Median time for tumors to 700 mg (range) (colon carcinoma 26; [6]): 18 (15-20) days
PR's (colon carcinoma 26; [6]): 0/6
Tumor Free day-156 (colon carcinoma 26; [6]): 0/6
day of nadir (colon carcinoma 26; [6]): 13 days
% Body Wt change at nadir (colon carcinoma 26; [7]): −4.0%
Activity Rating (colon carcinoma 26; [7]): inactive
CR's (colon carcinoma 26; [7]): 0/6
Drug Deaths (colon carcinoma 26; [7]): 0/6
Growth Delay in Days (colon carcinoma 26; [7]): none
Log Kill (colon carcinoma 26; [7]): none
Median time for tumors to 700 mg (range) (colon carcinoma 26; [7]): 13 (11.5-20) days
PR's (colon carcinoma 26; [7]): 0/6
Tumor Free day-156 (colon carcinoma 26; [7]): 0/6
day of nadir (colon carcinoma 26; [7]): 13 days
